According to ChEMBL document CHEMBL4842362, “From virtual screening hits targeting a cryptic pocket in BACE-1 to a nontoxic brain permeable multitarget anti-Alzheimer lead with disease-modifying and cognition-enhancing effects” (Eur J Med Chem, 2021):
≈ marks a conversion by molar mass, not a printed value. Calls of active or inactive are those of the source. No cut-off for these calls is given here.

Tests used:
[1] = test system: Mus musculus; experiment: In vivo inhibition of BACE-1 in hippocampal tissue of SAMP8 mouse assessed as reduction in sAPPbeta levels at 2 mg/kg, po measured after 4 weeks by Western blot analysis; assay type: functional, organism-based; conditions: Hippocampus
[2] = Neurotoxicity in mouse HT-22 cells assessed as decrease in cell viability at up to 25 uM by MTT assay; assay type: cell-based
[3] = test system: HT-22; experiment: Neuroprotective activity against glutamate induced neuronal death in mouse HT-22 cells assessed as increase in cell viability at 1 to 25 uM by MTT assay; assay type: functional, cell-based; conditions: dose 1-25 µM
[4] = target: Amyloid-beta precursor protein (Homo sapiens) (UniProt P05067); experiment: Inhibition of amyloid beta (1 to 42) (unknown origin) aggregation in Escherichia coli BL21 (DE3) at 10 uM incubated overnight by thioflavin S based fluorescence analysis relative to control
Amyloid-beta precursor protein (Homo sapiens), sequence (P05067 whole entry): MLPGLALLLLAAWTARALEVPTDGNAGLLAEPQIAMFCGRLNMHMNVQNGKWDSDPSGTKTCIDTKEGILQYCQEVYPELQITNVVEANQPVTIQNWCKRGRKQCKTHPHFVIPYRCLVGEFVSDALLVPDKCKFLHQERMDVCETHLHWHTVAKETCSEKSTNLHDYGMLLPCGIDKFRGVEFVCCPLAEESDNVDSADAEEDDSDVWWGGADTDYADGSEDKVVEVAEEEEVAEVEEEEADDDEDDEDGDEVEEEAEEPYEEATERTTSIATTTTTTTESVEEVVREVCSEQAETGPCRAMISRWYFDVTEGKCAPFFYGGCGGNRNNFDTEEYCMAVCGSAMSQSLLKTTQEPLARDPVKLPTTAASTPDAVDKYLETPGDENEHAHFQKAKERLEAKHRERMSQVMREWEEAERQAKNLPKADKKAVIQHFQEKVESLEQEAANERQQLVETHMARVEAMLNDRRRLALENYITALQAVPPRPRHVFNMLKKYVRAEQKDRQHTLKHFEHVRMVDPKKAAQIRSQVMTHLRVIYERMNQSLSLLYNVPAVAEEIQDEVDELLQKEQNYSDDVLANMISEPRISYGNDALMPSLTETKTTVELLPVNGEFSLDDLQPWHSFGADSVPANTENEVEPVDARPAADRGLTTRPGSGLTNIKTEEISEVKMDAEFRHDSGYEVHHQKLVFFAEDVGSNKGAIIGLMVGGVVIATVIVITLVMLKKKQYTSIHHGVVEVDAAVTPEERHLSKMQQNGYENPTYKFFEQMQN

[5] = target: Microtubule-associated protein tau (Homo sapiens) (UniProt P10636); experiment: Inhibition of tau aggregation (unknown origin) in Escherichia coli BL21 (DE3) at 10 uM incubated overnight by thioflavin S based fluorescence analysis relative to control
Microtubule-associated protein tau (Homo sapiens), sequence (P10636 whole entry): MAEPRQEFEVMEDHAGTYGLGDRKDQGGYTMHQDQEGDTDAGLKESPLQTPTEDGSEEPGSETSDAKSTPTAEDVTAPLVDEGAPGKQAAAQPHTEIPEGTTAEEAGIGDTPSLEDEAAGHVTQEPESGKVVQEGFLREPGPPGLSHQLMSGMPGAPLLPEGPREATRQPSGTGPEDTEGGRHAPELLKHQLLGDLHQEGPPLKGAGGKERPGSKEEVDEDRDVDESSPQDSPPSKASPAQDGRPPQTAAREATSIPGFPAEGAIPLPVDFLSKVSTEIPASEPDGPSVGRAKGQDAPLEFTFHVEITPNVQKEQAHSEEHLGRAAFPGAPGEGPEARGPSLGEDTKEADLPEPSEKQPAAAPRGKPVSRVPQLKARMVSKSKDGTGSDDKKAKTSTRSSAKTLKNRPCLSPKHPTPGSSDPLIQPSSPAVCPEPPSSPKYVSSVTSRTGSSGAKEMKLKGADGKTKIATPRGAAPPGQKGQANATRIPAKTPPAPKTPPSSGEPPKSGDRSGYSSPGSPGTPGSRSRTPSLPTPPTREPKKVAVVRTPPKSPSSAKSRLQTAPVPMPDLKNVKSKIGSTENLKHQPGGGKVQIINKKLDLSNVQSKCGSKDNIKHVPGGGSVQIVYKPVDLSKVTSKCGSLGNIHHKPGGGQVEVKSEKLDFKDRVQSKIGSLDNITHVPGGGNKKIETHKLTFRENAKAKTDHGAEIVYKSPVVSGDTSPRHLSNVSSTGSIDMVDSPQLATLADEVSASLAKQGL

[6] = target: T1, Cholinesterase (Homo sapiens, UniProt P06276); experiment: Potency index, ratio of donepezil IC50 to test compound IC50 for inhibition of human serum BChE using butyrylthiocholine iodide as a substrate preincubated for 20 mins followed by substrate addition by spectrophotometric analysis; assay type: cell-free
T1 sequence (P06276 whole entry): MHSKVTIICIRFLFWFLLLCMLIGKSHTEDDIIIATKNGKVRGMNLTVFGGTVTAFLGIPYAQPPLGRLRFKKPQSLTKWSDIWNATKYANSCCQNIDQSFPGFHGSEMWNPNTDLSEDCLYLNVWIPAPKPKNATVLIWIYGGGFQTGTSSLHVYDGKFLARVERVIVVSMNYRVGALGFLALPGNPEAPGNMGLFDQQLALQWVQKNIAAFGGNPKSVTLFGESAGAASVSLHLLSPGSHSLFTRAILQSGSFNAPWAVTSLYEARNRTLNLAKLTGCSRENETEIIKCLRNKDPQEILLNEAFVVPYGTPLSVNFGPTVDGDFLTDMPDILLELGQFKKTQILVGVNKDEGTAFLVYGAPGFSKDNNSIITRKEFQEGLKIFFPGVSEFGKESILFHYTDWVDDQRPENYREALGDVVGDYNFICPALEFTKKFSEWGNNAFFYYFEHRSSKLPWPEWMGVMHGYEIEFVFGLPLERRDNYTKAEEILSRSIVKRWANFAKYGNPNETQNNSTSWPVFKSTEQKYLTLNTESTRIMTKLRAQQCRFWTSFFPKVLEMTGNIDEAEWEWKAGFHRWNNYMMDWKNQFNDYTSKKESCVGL

[7] = test system: Mus musculus; experiment: Cognitive enhancing effect in SAMP8 mouse assessed as improvement of long term retrieval by measuring discrimination index at 2 mg/kg, po administered for 4 weeks followed by 10 mins acquisition trail and measured after 24 hrs by novel object recognition test; assay type: functional, organism-based
[8] = test system: Mus musculus; experiment: Effect on neuroinflammation in SAMP8 mouse assessed as reduction in Cxcl10 gene expression hippocampus tissue at 2 mg/kg, po measured after 4 weeks by RT-PCR analysis; assay type: functional, organism-based
[9] = test system: Mus musculus; experiment: Effect on neuroinflammation in SAMP8 mouse assessed as decrease in TNF-alpha gene expression hippocampus tissue at 2 mg/kg, po measured after 4 weeks by RT-PCR analysis; assay type: functional, organism-based
[10] = test system: Mus musculus; experiment: Modulation of oxidative stress in SAMP8 mouse assessed as increase in cox-2 gene expression in hippocampus tissue at 2 mg/kg, po measured after 4 weeks by RT-PCR analysis; assay type: functional, organism-based
[11] = test system: Mus musculus; experiment: Effect on synaptic plasticity in SAMP8 mouse assessed as increase in PSD95 protein levels in hippocampus tissue at 2 mg/kg, po measured after 4 weeks by western blot analysis; assay type: functional, organism-based
[12] = test system: Mus musculus; experiment: Effect on amyloid pathology in hippocampal tissue of SAMP8 mouse assessed as increase in neprilysin (Nep) gene expression at 2 mg/kg, po measured after 4 weeks by RT-PCR analysis; assay type: functional, organism-based
[13] = test system: Mus musculus; experiment: Effect on neuroinflammation in SAMP8 mouse assessed as decrease in IL-6 gene expression hippocampus tissue at 2 mg/kg, po measured after 4 weeks by RT-PCR analysis; assay type: functional, organism-based
[14] = test system: Mus musculus; experiment: Effect on synaptic plasticity in SAMP8 mouse assessed as increase in SYN protein levels in hippocampus tissue at 2 mg/kg, po measured after 4 weeks by western blot analysis; assay type: functional, organism-based
[15] = target: T2, Acetylcholinesterase (Homo sapiens, UniProt P22303); experiment: Potency index, ratio of donepezil IC50 to test compound IC50 for inhibition of human recombinant AChE using acetylthiocholine iodide as a substrate preincubated for 20 mins followed by substrate addition by spectrophotometric analysis
T2 sequence (P22303 whole entry): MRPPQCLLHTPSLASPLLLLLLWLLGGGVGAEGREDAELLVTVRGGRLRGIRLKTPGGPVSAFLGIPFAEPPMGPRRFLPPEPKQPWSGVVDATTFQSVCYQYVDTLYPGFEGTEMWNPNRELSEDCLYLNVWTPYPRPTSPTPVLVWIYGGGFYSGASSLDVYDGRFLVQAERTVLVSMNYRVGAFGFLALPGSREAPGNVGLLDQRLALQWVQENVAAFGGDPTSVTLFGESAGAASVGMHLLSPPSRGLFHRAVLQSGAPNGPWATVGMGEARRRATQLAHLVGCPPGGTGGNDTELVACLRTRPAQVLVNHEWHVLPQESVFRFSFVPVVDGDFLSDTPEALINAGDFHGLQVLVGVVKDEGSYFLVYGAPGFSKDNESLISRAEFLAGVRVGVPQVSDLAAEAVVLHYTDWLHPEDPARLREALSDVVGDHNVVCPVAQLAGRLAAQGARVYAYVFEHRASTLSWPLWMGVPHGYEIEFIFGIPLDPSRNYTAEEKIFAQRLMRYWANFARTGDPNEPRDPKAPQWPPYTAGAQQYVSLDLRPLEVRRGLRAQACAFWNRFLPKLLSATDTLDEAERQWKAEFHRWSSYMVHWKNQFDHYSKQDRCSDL

[16] = test system: Mus musculus; experiment: Effect on amyloid pathology in hippocampal tissue of SAMP8 mouse assessed as increase in insulin-degrading enzyme (Ide) gene expression at 2 mg/kg, po measured after 4 weeks by RT-PCR analysis; assay type: functional, organism-based
[17] = test system: Mus musculus; experiment: Modulation of oxidative stress in SAMP8 mouse assessed as increase in heme oxygenase 1 (Hmox1) gene expression in hippocampus tissue at 2 mg/kg, po measured after 4 weeks by RT-PCR analysis; assay type: functional, organism-based
[18] = target: T2, Acetylcholinesterase
Description: Inhibition of human recombinant AChE using acetylthiocholine iodide as a substrate preincubated for 20 mins followed by substrate addition by spectrophotometric analysis

[19] = test system: Mus musculus; experiment: Cognitive enhancing effect in SAMP8 mouse assessed as improvement of short term retrieval by measuring discrimination index at 2 mg/kg, po administered for 4 weeks followed by 10 mins acquisition trail and measured after 2 hrs by novel object recognition test; assay type: functional, organism-based
[20] = target: T2, Acetylcholinesterase; experiment: Potency index, ratio of rhein-huprine hybrid IC50 to test compound IC50 for inhibition of human recombinant AChE using acetylthiocholine iodide as a substrate preincubated for 20 mins followed by substrate addition by spectrophotometric analysis
[21] = test system: Mus musculus; experiment: Cognitive enhancing effect in SAMP8 mouse assessed as reversal of spatial memory impairment by measuring discrimination index at 2 mg/kg, po administered for 4 weeks by object location test; assay type: functional, organism-based
[22] = test system: Mus musculus; experiment: Effect on amyloid pathology in hippocampal tissue of SAMP8 mouse assessed as increase in Adam10 gene expression at 2 mg/kg, po measured after 4 weeks by RT-PCR analysis; assay type: functional, organism-based
[23] = target: T1, Cholinesterase
Description: Inhibition of human serum BChE using butyrylthiocholine iodide as a substrate preincubated for 20 mins followed by substrate addition by spectrophotometric analysis

[24] = target: Beta-secretase 1 (Homo sapiens, UniProt P56817); experiment: Inhibition of human recombinant BACE-1 expressed in Escherichia coli using panvera peptide as a substrate incubated for 1 hr by fluorescence analysis
Beta-secretase 1, sequence (P56817 whole entry): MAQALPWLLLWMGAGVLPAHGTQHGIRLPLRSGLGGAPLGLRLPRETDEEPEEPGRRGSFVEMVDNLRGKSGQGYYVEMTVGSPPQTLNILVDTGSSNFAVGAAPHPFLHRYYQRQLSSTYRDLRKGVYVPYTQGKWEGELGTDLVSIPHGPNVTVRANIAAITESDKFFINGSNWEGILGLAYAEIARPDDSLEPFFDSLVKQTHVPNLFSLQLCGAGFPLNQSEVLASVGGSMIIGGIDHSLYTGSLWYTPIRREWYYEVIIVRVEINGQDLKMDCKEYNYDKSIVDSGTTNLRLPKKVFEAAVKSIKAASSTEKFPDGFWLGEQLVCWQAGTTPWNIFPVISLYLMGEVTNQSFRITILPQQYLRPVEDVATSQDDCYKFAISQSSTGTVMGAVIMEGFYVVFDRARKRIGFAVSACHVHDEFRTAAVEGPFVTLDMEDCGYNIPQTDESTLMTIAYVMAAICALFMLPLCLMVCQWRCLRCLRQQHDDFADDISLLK

[25] = Acute toxicity in zebra fish embryos assessed as lethality measured every 24 hrs for 72 hrs; set-up: species or system Danio rerio; conditions: zebrafish
[26] = test system: Mus musculus; experiment: In vivo inhibition of BACE-1 in hippocampal tissue of SAMP8 mouse assessed as increase in sAPP alpha levels at 2 mg/kg, po measured after 4 weeks by western blot analysis; assay type: functional, organism-based; conditions: Hippocampus
[27] = Antioxidant activity assessed as free radical scavenging activity at 500 uM incubated for 30 mins under dark condition by DPPH assay; assay type: functional
[28] = test system: Mus musculus; experiment: Effect on neuroinflammation in SAMP8 mouse assessed as decrease in IL-1 beta gene expression hippocampus tissue at 2 mg/kg, po measured after 4 weeks by RT-PCR analysis; assay type: functional, organism-based
[29] = Toxicity in SAMP8 mouse assessed as mortality at 2 mg/kg, po for 4 weeks; assay type: organism-based; conditions: in vivo, 672 h
[30] = test system: Mus musculus; experiment: Effect on amyloid pathology in hippocampal tissue of SAMP8 mouse assessed as decrease in Bace-1 gene expression at 2 mg/kg, po measured after 4 weeks by RT-PCR analysis; assay type: functional, organism-based
[31] = target: T1, Cholinesterase; experiment: Potency index, ratio of huprine-Y IC50 to test compound IC50 for inhibition of human serum BChE using butyrylthiocholine iodide as a substrate preincubated for 20 mins followed by substrate addition by spectrophotometric analysis; assay type: cell-free
[32] = Kinetic solubility of the compound in DMSO/PBS buffer measured after 2 hrs by nephalometric analysis; assay type: physicochemical; conditions: DMSO/PBS buffer, read-out: Kinetic_solubility
[33] = Toxicity in SAMP8 mouse assessed as toxic effects at 2 mg/kg, po for 4 weeks; assay type: organism-based; conditions: in vivo, 672 h
[34] = test system: Mus musculus; experiment: In vivo inhibition of GSK3 beta in SAMP8 mouse assessed as reduction in tau phosphorylation at Ser 404 residue at 2 mg/kg, po measured after 4 weeks by western blot analysis; assay type: functional, organism-based
[35] = target: T1, Cholinesterase; experiment: Potency index, ratio of rhein-huprine hybrid IC50 to test compound IC50 for inhibition of human serum BChE using butyrylthiocholine iodide as a substrate preincubated for 20 mins followed by substrate addition by spectrophotometric analysis; assay type: cell-free
[36] = Permeability of the compound in PBS/EtOH by PAMPA-BBB assay; assay type: ADME; conditions: read-out: permeability

In the case of `CC1=CC2Cc3nc4cc(Cl)ccc4c(NCCCCCCCCCNC(=O)c4cc(O)cc(O)c4)c3C(C1)C2` (stereo unspecified), the Activity [1] is reported as “Active”, the Activity [2] is reported as “Non-Toxic” and the Activity [3] is reported as “inactive”. For the same molecule, the inhibition [4] was 49.5%, the inhibition [5] was 65.8% and the Ratio IC50 [6] was 79. The Activity [7] was “Active”, the Activity [8] was “Active” and the Activity [9] was “Active”. For the same molecule, the Activity [10] was “inactive”, the Activity [11] was “Active” and the Activity [12] was “Active”. The Activity [13] was “Active”, the Activity [14] was “Active” and the Ratio IC50 [15] was under 65. The Activity [16] was “inactive”, the Activity [17] was “Active” and the IC50 [18] was 2.57 nM. For the same molecule, the Activity [19] was “Active”, the Ratio IC50 [20] was under 9 and the Activity [21] was “Active”. For the same molecule, the Activity [22] was “Active”, the IC50 [23] was 43 nM and the IC50 [24] was 2710 nM. The LC50 at 72 h [25] was over 100000 nM, the Activity [26] was “Active” and the Activity [27] was “inactive”. For the same molecule, the Activity [28] was “Active”, the Activity [29] was “Non-Toxic” and the Activity [30] was “Active”. For the same molecule, the Ratio IC50 [31] was 2, the solubility kinetic at 2 h [32] was 10.8 µg/mL (≈ 19.2 µM) and the Activity [33] was “Non-Toxic”. The inhibition [34] was “Active”, the Ratio IC50 [35] was 7 and the Papp [36] was 9.4 ×10⁻⁶ cm/s.
